Measurements published in ChEMBL document CHEMBL5724914, “Linking interpersonal differences in gut microbiota composition and drug biotransformation activity” (2024).

Columns and labels:
[1] = (§1) The drug is tested on Z-028 corresponding to mouse gut metagenome with ENA study accession number: PRJEB37062 and ENA sample accession number: ERS12561827 for biotransformation under anaerobic condition. The drug concentrations were measured over 9 timepoints collected between 0 and 24 hours of incubation by liquid-chromatography-coupled mass spectrometry (LC–MS); settings: 2 µM
[2] = as §1, with “Z-025” for “Z-028”, “rabbit” for “mouse”, “ERS12561824” for “ERS12561827”; settings: 2 µM
[3] = as §1, with “Z-022” for “Z-028”, “ERS12561821” for “ERS12561827”; settings: 2 µM
[4] = as §1, with “Z-017” for “Z-028”, “ERS12561816” for “ERS12561827”; settings: 2 µM
[5] = as §1, with “Z-013” for “Z-028”, “rabbit” for “mouse”, “ERS12561813” for “ERS12561827”; settings: 2 µM
[6] = as §1, with “Z-012” for “Z-028”, “to” for “to mouse gut”, “ERS12561812” for “ERS12561827”; settings: 2 µM
[7] = as §1, with “Z-011” for “Z-028”, “ERS12561811” for “ERS12561827”; settings: 2 µM
[8] = as §1, with “Z-006” for “Z-028”, “ERS12561806” for “ERS12561827”; settings: 2 µM
[9] = as §1, with “Z-004” for “Z-028”, “to” for “to mouse gut”, “ERS12561804” for “ERS12561827”; settings: 2 µM
[10] = as §1, with “WLS-310” for “Z-028”, “human” for “mouse”, “ERS12561785” for “ERS12561827”; settings: 2 µM
[11] = as §1, with “WLS-240” for “Z-028”, “human” for “mouse”, “ERS12561773” for “ERS12561827”; settings: 2 µM
[12] = as §1, with “WLS-038” for “Z-028”, “human” for “mouse”, “ERS12561745” for “ERS12561827”; settings: 2 µM
[13] = human gut metagenome, 24 h, 2 µM
[14] = human gut metagenome, 24 h, 2 µM; remark: listed apart in the source
[15] = human gut metagenome, 24 h, 2 µM; remark: listed apart in the source
[16] = human gut metagenome, 24 h, 2 µM; remark: listed apart in the source
[17] = human gut metagenome, 24 h, 2 µM; remark: listed apart in the source
[18] = human gut metagenome, 24 h, 2 µM; remark: listed apart in the source
[19] = human gut metagenome, 24 h, 2 µM; remark: listed apart in the source
[20] = as §1, with “WLS-086” for “Z-028”, “human” for “mouse”, “ERS12561752” for “ERS12561827”; settings: 2 µM
Also: call rule not given here.

Compound	Bacterial Biotransformation [1]	Bacterial Biotransformation [2]	Bacterial Biotransformation [3]	Bacterial Biotransformation [4]	Bacterial Biotransformation [5]	Bacterial Biotransformation [6]	Bacterial Biotransformation [7]	Bacterial Biotransformation [8]	Bacterial Biotransformation [9]	Bacterial Biotransformation [10]	Bacterial Biotransformation [11]	Bacterial Biotransformation [12]	Bacterial Biotransformation [13]	Bacterial Biotransformation [14]	Bacterial Biotransformation [15]	Bacterial Biotransformation [16]	Bacterial Biotransformation [17]	Bacterial Biotransformation [18]	Bacterial Biotransformation [19]	Bacterial Biotransformation [20]
CC(C)C[C@H]1C(=O)N2CCC[C@H]2[C@]2(O)O[C@](NC(=O)[C@@H]3C=C4c5cccc6[nH]c(Br)c(c56)C[C@H]4N(C)C3)(C(C)C)C(=O)N12.CS(=O)(=O)O [BROMOCRIPTINE MESYLATE]	Compound metabolized	Compound metabolized	Compound metabolized	Compound metabolized	Compound metabolized	Compound metabolized	Compound metabolized	Compound metabolized	Compound metabolized	Compound metabolized	Compound NOT metabolized	Compound metabolized	Compound metabolized	Compound metabolized	Compound metabolized	Compound metabolized	Compound metabolized	Compound NOT metabolized	Compound NOT metabolized	–
COc1ccc(Cc2nccc3cc(OC)c(OC)cc23)cc1OC [PAPAVERINE]	Compound NOT metabolized	Compound metabolized	Compound metabolized	Compound NOT metabolized	Compound NOT metabolized	Compound NOT metabolized	Compound NOT metabolized	Compound NOT metabolized	Compound NOT metabolized	Compound metabolized	–	Compound NOT metabolized	Compound metabolized	Compound metabolized	Compound metabolized	Compound metabolized	Compound metabolized	Compound metabolized	Compound NOT metabolized	Compound metabolized
COc1ccc(/C=C/C(=O)Nc2ccccc2C(=O)O)cc1OC	Compound NOT metabolized	Compound metabolized	Compound metabolized	Compound NOT metabolized	Compound metabolized	Compound NOT metabolized	Compound NOT metabolized	Compound NOT metabolized	Compound NOT metabolized	Compound metabolized	–	Compound metabolized	Compound NOT metabolized	Compound metabolized	Compound NOT metabolized	Compound NOT metabolized	Compound NOT metabolized	Compound metabolized	Compound NOT metabolized	Compound NOT metabolized
COc1cc(NC(C)CCCN)c2ncccc2c1.O=P(O)(O)O.O=P(O)(O)O (stereo unspecified) [PRIMAQUINE PHOSPHATE]	Compound NOT metabolized	Compound metabolized	Compound NOT metabolized	Compound NOT metabolized	Compound NOT metabolized	Compound NOT metabolized	Compound NOT metabolized	Compound NOT metabolized	Compound NOT metabolized	Compound NOT metabolized	Compound metabolized	Compound NOT metabolized	Compound NOT metabolized	Compound NOT metabolized	Compound NOT metabolized	Compound NOT metabolized	Compound NOT metabolized	Compound metabolized	Compound NOT metabolized	–
